Assay results reported in patent US5739284A, “Compositions corresponding to a high-affinity glutamate transporter molecule and methods for making and using same” (Brigham and Women's Hospital, Inc., priority 1995, dated 1998).
Substitutions are numbered along the chain they refer to. Like-named read-outs stand apart in the source and are kept apart here.

How the values were obtained:
[1] = target: T1, rabbit derived excitatory amino acid carrier (Oryctolagus cuniculus, UniProt P31597); assay: inhibition of current evoked by L-glutamate in oocytes expressing rabbit EAAC1; format: cell-based
T1 construct: ID No. 4; expressed in transfected cells; host or cells: Xenopus laevis oocytes injected with cRNA (25 ng/oocyte)
T1 sequence (P31597 1-524): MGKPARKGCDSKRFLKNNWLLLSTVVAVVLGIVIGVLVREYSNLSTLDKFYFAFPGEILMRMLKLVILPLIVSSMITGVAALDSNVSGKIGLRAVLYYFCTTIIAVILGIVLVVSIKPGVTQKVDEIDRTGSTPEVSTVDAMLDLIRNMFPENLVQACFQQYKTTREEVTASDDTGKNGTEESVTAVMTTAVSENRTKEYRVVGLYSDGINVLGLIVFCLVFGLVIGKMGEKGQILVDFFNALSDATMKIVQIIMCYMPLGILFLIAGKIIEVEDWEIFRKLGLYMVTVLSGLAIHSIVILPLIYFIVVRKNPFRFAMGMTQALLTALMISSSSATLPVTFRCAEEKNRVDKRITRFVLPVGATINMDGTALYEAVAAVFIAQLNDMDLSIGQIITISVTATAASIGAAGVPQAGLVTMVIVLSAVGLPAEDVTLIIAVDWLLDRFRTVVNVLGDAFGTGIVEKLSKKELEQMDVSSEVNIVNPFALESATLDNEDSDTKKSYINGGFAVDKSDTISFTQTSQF
Description: (§1) Xenopus laevis oocytes were injected with cRNA (25 ng/oocyte) encoding for the excitatory amino acid carrier protein derived from rabbit as described in Example 1. Electrophysiological measurements were performed 3-4 days after injection using a conventional two-microelectrode voltage clamp method (Axoclamp-2A, Axon Instruments, CA).
The standard bath solution (ND 96) contained 96 mM NaCl, 2 mM KCl, 1.8 mM CaCl2, 1.0 mM MgCl2 and 5 mM HEPES pH 7.4 The recording chamber was perfused with bath solution. Current responses of Xenopus laevis oocytes injected with cRNA coding for the excitatory amino acid carrier protein and fragments thereof to bath applied 100 μM substrates are illustrated in FIG. 7.
Example 7 illustrates the application of the electrophysiological features of the excitatory amino acid carrier protein, derived from rabbit, described in Example 6 in the screening of drugs to enhance or inhibit the protein. The Xenopus laevis oocytes was injected with rabbit derived excitatory amino acid carrier cRNA and processed as described in Example 6. […] Robinson, M. B., Hunter-Ensor, M. & Sinor, J., "Pharmacologically distinct sodium-dependentL-[3H]glutamate transport process in rat brain," Brain Research 544:196-202 (1991).

[2] = system: synaptosomal L-glutamate uptake; settings: Robinson et al. / previously known; cited from earlier work
[3] = target: T2, Human High Affinity Glutamate Transporter HEAAC1 (Homo sapiens, UniProt P43005); assay: inhibition of L-glutamate-evoked currents in oocytes expressing human carrier; format: cell-based; parameters: expressed in transfected cells; host or cells: Xenopus laevis oocytes (cRNA injection; human kidney clone K-3); settings: for IC50 / Ki: HEAAC1; for inhibition of the current induced by L-glutamate: L-glutamate 10-1,000 μM, DHK 1 mM; for order of sensitivity to inhibitors based on IC50 values: current induced by 100 μM L-glutamate; for Ki: based on the kinetics for competitive inhibition
T2 sequence (P43005 1-524 V96L/K170N/P172A/L260H): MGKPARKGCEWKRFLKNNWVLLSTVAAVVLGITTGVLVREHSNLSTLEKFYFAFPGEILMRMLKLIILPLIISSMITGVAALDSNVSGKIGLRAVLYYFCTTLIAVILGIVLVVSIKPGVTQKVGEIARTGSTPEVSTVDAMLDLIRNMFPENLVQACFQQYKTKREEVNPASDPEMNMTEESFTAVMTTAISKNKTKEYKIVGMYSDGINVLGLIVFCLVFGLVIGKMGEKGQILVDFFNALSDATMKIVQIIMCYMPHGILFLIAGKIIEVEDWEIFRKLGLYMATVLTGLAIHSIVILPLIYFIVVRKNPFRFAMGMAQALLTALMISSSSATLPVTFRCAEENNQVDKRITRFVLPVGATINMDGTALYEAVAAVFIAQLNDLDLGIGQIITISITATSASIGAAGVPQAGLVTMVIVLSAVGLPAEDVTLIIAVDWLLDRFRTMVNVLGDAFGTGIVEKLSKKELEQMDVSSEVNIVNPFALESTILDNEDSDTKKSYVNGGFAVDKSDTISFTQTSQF
Description: (§2) The glutamate evoked currents were first measured without addition of inhibitor. […] Calculation of KI values was based on the kinetics for competitive inhibition.

[4] = target: T2, Human High Affinity Glutamate Transporter HEAAC1; assay: substrate-evoked currents in oocytes expressing human carrier; settings: for inward currents induced: AAD at 50 μM, DHK up to 1 mM
Description: as §2
Oocytes were used for two-microelectrode voltage-clamping as described above and command potentials were applied and controlled by an IBM-compatible computer via the software CLAMPEX from pCLAMP (version 5.5 Axon Instruments, CA). The oocyte membrane was held at -50 mV and pulsed to the test potential for […] followed by a 1 sec interpulse interval at the holding potential of -50 mV before application of the next pulse. Current was low-pass filtered at […], digitized at 200 μsec and saver on the computer. Steady-state currents were obtained by averaging the current between 72 and 76 msec.

[5] = target: T3, excitatory amino acid carrier protein (EAAC1) derived from rabbit (Oryctolagus cuniculus, UniProt P31597); assay: uptake of 14C-L-glutamate or 14C-L-aspartate by Xenopus oocytes injected with rabbit EAAC1 cRNA; format: cell-based; settings: carrier protein of Seq. ID No. 4
T3 sequence (P31597 1-524): T1 sequence (P31597 1-524)
Description: Poly(A)^+ RNA was isolated and injected into collagenase-treated and manually-defolliculated Xenopus laevis oocytes.
All uptakes in this and the following figures were performed with 6-8 oocytes, 3 days after injection. […] For the sodium-free medium, sodium chloride was replaced by Choline-chloride. RNA-injected oocytes were injected with 25 ng cRNA in 50 nl.
The solutions described above were modified to the extent that acetate ion was substituted for chloride ion.

[6] = system: excitatory amino acid carrier protein derived from rabbit; assay: effect of external K+ on current evoked by L-glutamate; format: cell-based; settings: 50 μM L-glutamate, 0-50 mM K+, -30 mV, FIG. 10
Description: as §1
The bath medium were prepared containing potassium ion concentrations in concentrations ranging from 0 mM-50 mM. The bath media were held at a holding potential of -30 mV, and normalized to the current measured on the same oocyte (the value at 0 mM K^+ is 100%). Consecutive current measurements were made on single oocytes after changing to bath medium containing the appropriate K^+ concentration. […] The bath medium contained z mM KCl (where z=0-50), 50-z mM choline Cl, 50 mM NaCl, 1.8 mM CaCl2, 1.0 mM MgCl2, 10 mM BaCl2, 5 mM HEPES pH 7.4.

[7] = target: T4, human excitatory amino acid carrier (Homo sapiens, UniProt P43005); assay: voltage dependence of currents mediated by human carrier; format: cell-based
T4 sequence (P43005 1-524): T2 sequence (P43005 1-524 V96L/K170N/P172A/L260H) with L96V, N170K, A172P, H260L
Description: (§3) Oocytes were used for two-microelectrode voltage-clamping as described above and command potentials were applied and controlled by an IBM-compatible computer via the software CLAMPEX from pCLAMP (version 5.5 Axon Instruments, CA). The oocyte membrane was held at -50 mV and pulsed to the test potential for msec followed by a 1 sec interpulse interval at the holding potential of -50 mV before application of the next pulse. Current was low-pass filtered at 50 kHz, digitized at 200 μsec and saver on the computer. Steady-state currents were obtained by averaging the current between 72 and 76 msec.

[8] = target: T3, excitatory amino acid carrier protein (EAAC1) derived from rabbit; assay: substrate-evoked currents (two-microelectrode voltage clamp) in oocytes expressing rabbit EAAC1; settings: 100 μM substrate, -60 mV holding potential, FIG. 7
Description: (§4) The membrane current was measured in standard bath solution (ND 96) at -60 mV holding potential. Substrates were applied at the bars.
(§5) FIG. 9 graphically depicts the changes in glutamate induced current measured in nanoampere (nA) at concentrations ranging from 1 μM to 1 mM glutamate. The results were fitted to a Michaelis-Menton curve. An Eadie-Hofstee plot is depicted in the inset.
(§6) Xenopus laevis oocytes were injected with excitatory amino acid carrier cRNA derived from rabbit (25 ng/oocyte) and used for two microelectrode voltage clamp experiments. Recordings were performed at -60 mV in regular ND 96 saline (96 mM NaCl, 2 mM KCl, 1.8 mM CaCl2, 1.0 mM MgCl2 and 5 mM Hepes pH 7.4).

[9] = substrate: N[C@H](CC(=O)O)C(=O)O; assay: cells, lysate or membranes; settings: other: EAAC1, rabbit derived; pH 7.4
Description: as §4, §5, §6

[10] = substrate: N[C@@H](CCC(=O)O)C(=O)O; assay: cells, lysate or membranes; settings: pH 7.4
[11] = substrate: N[C@@H](CC(=O)O)C(=O)O; assay: cells, lysate or membranes; settings: other: EAAC1, rabbit derived; pH 7.4
Description: as §4, §5, §6

[12] = substrate: N[C@H](C(=O)O)[C@H](O)C(=O)O; assay: cells, lysate or membranes; settings: other: HEAAC1, human
Description: as §3

[13] = substrate: N[C@@H](CCCC(=O)O)C(=O)O; assay: cells, lysate or membranes; settings: other: HEAAC1, human
[14] = substrate: O=C(O)[C@H]1CN[C@H](C(=O)O)C1; assay: cells, lysate or membranes; settings: other: HEAAC1, human
Description: as §3

[15] = IC50, L-Glu = 100 um, L-Glu = 100 um

N[C@H](C(=O)O)[C@H](O)C(=O)O (relative stereo) [THA, DL-threo-β-hydroxyaspartate]
IC50 [1]: 0.0071 mM | inhibition of synaptosomal L-glutamate uptake [2]: strong inhibitor | IC50 [3, 15]: 28 ± 0.8 µM | inhibition of the current induced by L-glutamate [3]: potent inhibitors | order of sensitivity to inhibitors based on IC50 values [3]: THA>PDC>>AAA>DHK | substrate of the carrier / effect on transport [4]: transport substrates | inward currents induced [4]: large inward currents

N[C@@H](CCCC(=O)O)C(=O)O [AAD, L-α-aminoadipate]
IC50 [1]: 0.165 mM | Ki [3]: ~20 µM | order of sensitivity to inhibitors based on IC50 values [3]: THA>PDC>>AAA>DHK

CC(C)[C@H]1CN[C@H](C(=O)O)[C@H]1CC(=O)O [DHK, dihydrokainate]
IC50 ([1]; rabbit EAAC1, value in mM, read-out: IC50, inhibition of glutamate induced inward currents): > 1 mM | inhibition of synaptosomal L-glutamate uptake [2]: less effective inhibitors | inhibition of the current induced by L-glutamate [3]: did not inhibit the current efficiently | order of sensitivity to inhibitors based on IC50 values [3]: THA>PDC>>AAA>DHK | inhibition at 1000 µM ([3]; read-out: inhibition at 1 mM DHK (IC50)): 6.7% | inward currents induced [4]: did not induce significant currents

NC(=O)CC[C@H](N)C(=O)O [Glutamine]
activity for glutamine transport [5]: slight activity

[K+] [K^+, potassium ion]
inhibition of L-glutamate evoked current by external K+ [6]: greater degree of inhibition of current at higher K^+ concentration

N[C@@H](CCC(=O)O)C(=O)O [L-glutamate]
voltage dependence of Km for L-glutamate [7]: strongly depended on membrane voltage

O=C(O)[C@H]1CN[C@H](C(=O)O)C1 [PDC, L-trans-pyrolidine-2,4-dicarboxylate]
Vmax for the PDC-induced current [7]: markedly reduced | overall voltage-dependencies of L-glutamate and PDC evoked currents [7]: identical | Ki [3]: ~1 µM | IC50 ([3]; IC50, L-Glu = 1 mM, L-Glu = 1 mM): 91 ± 7.2 µM | IC50 [3, 15]: 74 ± 11 µM | inhibition of the current induced by L-glutamate [3]: potent inhibitors | order of sensitivity to inhibitors based on IC50 values [3]: THA>PDC>>AAA>DHK | maximal transport rate (Vmax) of glutamate uptake ([3]; human carrier): reduces the maximal transport rate (Vmax) | preference as uptake inhibitor ([3]; human carrier): preferred uptake inhibitor | substrate of the carrier / effect on transport [4]: transport substrates | inward currents induced [4]: large inward currents

N[C@@H](Cn1oc(=O)[nH]c1=O)C(=O)O [Quisgualate, quisgualate]
amplitude of inward current evoked by substrate [8]: small but significant inward current

C=C(C)[C@H]1CN[C@H](C(=O)O)[C@H]1CC(=O)O [kainate]
amplitude of inward current evoked by substrate [8]: did not induce current

B1: excitatory amino acid carrier protein (EAAC1) derived from rabbit (Oryctolagus cuniculus) (protein)
chain: T1 sequence (P31597 1-524)
Km [9]: 7.5 µM | Km ([10]; other: EAAC1, rabbit derived): 12.1 µM | Km ([10]; other: glutamate-induced current, rabbit EAAC1 in oocytes): 12.2 µM | Km [11]: 6.5 µM

B2: Human High Affinity Glutamate Transporter HEAAC1 (Homo sapiens) (protein)
chain: T2 sequence (P43005 1-524 V96L/K170N/P172A/L260H)
Km [12]: 34 ± 6.4 µM | Km [13]: 2400 ± 0.6 µM | Km [14]: 23 ± 3.7 µM
